Patent US12187759B2, “TLR7 agonists” (Primmune Therapeutics, Inc., priority 2019, dated 2025)

What was measured:
human TLR7 = biological target: T1, human TLR7 (Homo sapiens, UniProt Q9NYK1); assay: TLR7 reporter cell assay (HEK293 cells stably expressing human TLR7 with NF-κB-driven SEAP reporter); format: cell-based; conditions: 15-24 hours; for Emax at 500 µM: HEK293, 500 μM compound, SEAP activity (OD 650 nm) relative to 28.5 μM resiquimod, read-out: Response at 500 μM Compound as a Percent of Resiquimod Response; for EC50: fit of SEAP dose response, ymax from 28.5 μM resiquimod
T1 construct: host or cells: HEK293
T1 sequence (Q9NYK1 27-1049): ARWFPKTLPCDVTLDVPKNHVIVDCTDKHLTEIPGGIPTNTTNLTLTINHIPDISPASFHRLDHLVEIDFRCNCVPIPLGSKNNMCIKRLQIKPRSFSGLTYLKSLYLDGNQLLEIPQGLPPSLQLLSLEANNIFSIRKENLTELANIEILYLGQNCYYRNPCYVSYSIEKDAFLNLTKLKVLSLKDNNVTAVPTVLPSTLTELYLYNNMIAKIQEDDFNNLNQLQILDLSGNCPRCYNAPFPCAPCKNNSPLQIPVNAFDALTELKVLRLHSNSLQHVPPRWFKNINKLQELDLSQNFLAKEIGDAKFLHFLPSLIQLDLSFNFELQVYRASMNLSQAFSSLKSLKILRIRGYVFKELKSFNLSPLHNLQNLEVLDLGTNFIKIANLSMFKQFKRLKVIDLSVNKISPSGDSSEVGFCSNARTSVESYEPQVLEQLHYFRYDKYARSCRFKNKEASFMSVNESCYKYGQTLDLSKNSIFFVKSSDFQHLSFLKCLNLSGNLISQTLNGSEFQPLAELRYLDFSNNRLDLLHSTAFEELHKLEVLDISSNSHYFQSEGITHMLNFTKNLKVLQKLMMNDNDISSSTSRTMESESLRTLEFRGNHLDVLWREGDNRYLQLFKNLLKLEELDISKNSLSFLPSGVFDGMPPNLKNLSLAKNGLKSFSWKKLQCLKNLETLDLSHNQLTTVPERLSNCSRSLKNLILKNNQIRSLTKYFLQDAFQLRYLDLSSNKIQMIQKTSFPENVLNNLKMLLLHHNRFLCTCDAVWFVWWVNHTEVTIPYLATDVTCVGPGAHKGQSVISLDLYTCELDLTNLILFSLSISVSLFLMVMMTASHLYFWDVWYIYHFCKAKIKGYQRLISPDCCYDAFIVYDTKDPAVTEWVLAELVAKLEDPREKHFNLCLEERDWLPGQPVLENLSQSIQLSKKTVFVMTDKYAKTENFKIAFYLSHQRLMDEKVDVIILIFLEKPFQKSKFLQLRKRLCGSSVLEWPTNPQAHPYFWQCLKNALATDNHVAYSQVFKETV
Method in brief: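 HEK293 cells stably expressing human TLR7 with an NF-κB-driven SEAP reporter, treated with compound for 15-24 hours. SEAP read at OD 650 nm. EC50 fitted by nonlinear least squares, maximum set by 28.5 μM resiquimod.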

[1] = test system: hPBMCs (Human Peripheral Blood Mononuclear Cells); assay: Induction of interferon-α in hPBMCs in vitro; format: cell-based; conditions: Homo sapiens, PBMC; for Emax: 24 h, peak IFNα2a as percentage of peak response of standard 2-Amino-7-(cyclopropylmethyl)-9-B-D-xylofuranosyl-7,9-dihydro-1H-purine-6,8-dione, averaged across donors, read-out: IFNrmax, Relative Maximal IFNα2a Production (%); for minimal effective concentration: minimal effective concentration for interferon-α production (generally at least 80 pg/ml above baseline), geometric mean across at least three donors, 24 hours, read-out: Weighted MEC
Method in brief: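 Peripheral blood mononuclear cells from healthy human donors were dispensed into replicate culture wells at 1.0-7.5×10^6 cells per well. They were exposed to test compound for 24 hours at 37° C. in humidified 5% CO2, with untreated wells as controls. Secreted interferon-α was quantified with a multisubtype ELISA or as IFNα2a in a luminex panel. MEC was defined as the lowest concentration giving a significant rise above baseline, generally at least 80 pg/ml. IFNmax was the highest IFN level seen at any tested concentration.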

Row | Compound | Emax at 500 µM (human TLR7) [%] | EC50 (human TLR7) [µM] | Emax [1] [%] | minimal effective concentration [1] [µM]
1 | C#CCn1c(=O)n([C@@H]2O[C@H]([C@@H](O)CN)C[C@H]2O)c2nc(N)[nH]c(=O)c21 [Compound 15, 2-Amino-9-((2R,3R,5S)-5-((S)-2-amino-1-hydroxyethyl)-3-hydroxytetrahydrofuran-2-yl)-7-(prop-2-yn-1-yl)-7,9-dihydro-1H-purine-6,8-dione] | < 5 | – | ≤ 10 | > 50
2 | C#CCn1c(=O)n([C@@H]2O[C@H]([C@H](O)CF)C[C@H]2O)c2nc(N)[nH]c(=O)c21 [Compound 23, 2-Amino-9-((2R,3R,5S)-5-((S)-2-fluoro-1-hydroxyethyl)-3-hydroxytetrahydrofuran-2-yl)-7-(prop-2-yn-1-yl)-7,9-dihydro-1H-purine-6,8-dione] | < 5 | – | ≤ 10 | > 50
3 | CC[C@H](O)[C@@H]1C[C@@H](O)[C@H](n2c(=O)n(CCSC)c3c(=O)[nH]c(N)nc32)O1 [Compound 22, 2-Amino-9-((2R,3R,5S)-3-hydroxy-5-((S)-1-hydroxypropyl)tetrahydrofuran-2-yl)-7-(2-(methylthio)ethyl)-7,9-dihydro-1H-purine-6,8-dione] | 69 | 224 | 307 | 6.3

Now from value to compound, other results behind:

Row | Emax at 500 µM (human TLR7) [%] | EC50 (human TLR7) [µM] | Compound | Emax [1] [%] | minimal effective concentration [1] [µM]
4 | 74 | 324 | CCCn1c(=O)n([C@@H]2O[C@H]([C@@H](O)C(F)(F)F)C[C@H]2O)c2nc(N)[nH]c(=O)c21 [Compound 25, 2-Amino-9-((2R,3R,5S)-3-hydroxy-5-((R)-2,2,2-trifluoro-1-hydroxyethyl)tetrahydrofuran-2-yl)-7-propyl-7,9-dihydro-1H-purine-6,8-dione] | 80 | 19.8
5 | 66 | 185 | C#CCn1c(=O)n([C@@H]2O[C@H]([C@@H](O)CSC)C[C@H]2O)c2nc(N)[nH]c(=O)c21 [Compound 45, 2-Amino-9-((2R,3R,5S)-3-hydroxy-5-((R)-1-hydroxy-2-(methylthio)ethyl)tetrahydrofuran-2-yl)-7-(prop-2-yn-1-yl)-7,9-dihydro-1H-purine-6,8-dione] | 321 | 5
6 | 87 | 94 | CCCCn1c(=O)n([C@@H]2O[C@H]([C@@H](O)CC)[C@H](F)[C@H]2O)c2nc(N)[nH]c(=O)c21 [Compound 30, 2-Amino-7-butyl-9-((2R,3S,4R,5R)-4-fluoro-3-hydroxy-5-((S)-1-hydroxypropyl)tetrahydrofuran-2-yl)-7,9-dihydro-1H-purine-6,8-dione] | 347 | 1.6
